The text below walks through data of patent US10584127B2, “3,3-difluoropiperidine carbamate heterocyclic compounds as NR2B NMDA receptor antagonists” (Rugen Holdings (Cayman) Limited, priority 2015, dated 2020).

Structures are written as SMILES. A value given as a limit tells only on which side of the number the result lay.

Usually IC50 stands for the concentration that inhibits the measured activity by half.

Data set [1] concerns NMDA receptor (all subtypes), native rat brain receptors. Put plainly: [3H] MK-801 radioligand binding assay, rat brain membranes. To be noted: 2 nM [3H] MK-801, rat brain membranes. As to the method:
This example describes NMDA receptor binding assays using two different radioligands, [^3H] […] An established binding assay using the non-selective NMDA receptor ligand [^3H] […] The binding assay method using the NR2B selective receptor ligand [^3H] […] This assay serves as a selective measure of NR2B receptor binding activity in native rat brain receptors. Briefly, the brains of Male Wistar rats were homogenized (Polytron) before centrifugation at 40,000×g for 15 minutes at 4° C. After 2 washes, the final pellet was homogenized and stored at −80° C. The protein concentration was determined by Bradford assay.
Test compounds were solubilized at 10 mM in DMSO. Then the dilutions were performed with a constant solvent concentration (1% DMSO) in the assay.
After incubation for 4.5 h at room temperature, the assays were filtered on GF/B filters pretreated with 0.3% (v/v) PEI with a Brandel system for [^3H] […] The experiment was performed in duplicate (n=2).

For data set [2], the target named is CYP2D6 (Homo sapiens (Human), UniProt P10635). Put plainly: CYP P450 enzyme inhibition, pooled human liver microsome. The data set is classed as in vitro ADME. Particulars: HLM, dextromethorphan 5 μM. For orientation: Liver microsomes are a subcellular fraction often used to study metabolism.
Chain of CYP2D6 (P10635 whole entry): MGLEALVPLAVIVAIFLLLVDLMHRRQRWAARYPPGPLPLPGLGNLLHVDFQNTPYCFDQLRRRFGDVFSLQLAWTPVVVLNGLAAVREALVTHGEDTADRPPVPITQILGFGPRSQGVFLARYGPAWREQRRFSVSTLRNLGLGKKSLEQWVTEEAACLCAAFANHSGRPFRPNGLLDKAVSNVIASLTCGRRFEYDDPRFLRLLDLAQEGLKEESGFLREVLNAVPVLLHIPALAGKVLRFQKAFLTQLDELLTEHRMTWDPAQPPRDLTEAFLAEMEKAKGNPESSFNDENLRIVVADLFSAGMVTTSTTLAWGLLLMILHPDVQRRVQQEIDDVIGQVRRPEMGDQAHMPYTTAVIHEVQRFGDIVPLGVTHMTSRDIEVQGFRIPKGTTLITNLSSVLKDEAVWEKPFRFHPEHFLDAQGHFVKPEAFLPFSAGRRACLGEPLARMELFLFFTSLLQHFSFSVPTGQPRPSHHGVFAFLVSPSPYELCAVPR
Procedure: Those CYP isoforms and their corresponding probe substrates are as follows: CYP1A2 (phenacetin, 30 μM), CYP2C9 (tolutamide, 100 μM), CYP2C19 (S-mephenytoin, 40 μM), CYP2D6 (dextromethorphan, 5 μM) and CYP3A4 (midazolam, 1 μM). All probe substrates were used at concentrations near or below their Kms. For experiment, a reaction mixture of test compound at 10 μM or in serial dilution, CYP probe substrate described above and 0.2 mg/mL pooled HLM in phosphate buffer, pH 7.4 in a final volume of 200 μL was pre-incubated at 37° C. for 10 minutes in triplicate. The reaction was initiated by addition of NADPH at final concentration of 1 mM. The reaction was terminated after 10 minutes (CYP1A2, CYP2D6 and CYP3A4) or 30 minutes (CYP2C9 and CYP2C19) by addition of 100 μL ice-cold acetonitrile with internal standard (IS). The samples were then centrifuged at 13,000 rpm and the supernatants were injected to LC-MS/MS (Agilent Technologies) to quantify the concentration of the specific metabolites of the probe substrates formed by individual CYP450 isoforms. The inhibition ratio is calculated as: (Mt−M0)/Mwater×100% in which Mt and M0 represent the concentrations of the specific probe substrate metabolite, which was formed by individual CYP450 isoform, at the beginning and end of the reaction in the presence of test compound; while Mwater represents the concentration of the specific metabolite at the end of the reaction in the absence of test compound. Test compound concentration-dependent response data experiments performed in triplicate.
In data set [3] the target is cloned human NR1/NR2A (Homo sapiens (Human), UniProt Q12879). Put plainly: NR2A antagonist activity, Fluo-4 calcium influx in HEK293 cells. The format is cell-based. To be noted: glutamate 100 μM, glycine 50 μM.
Chain of cloned human NR1/NR2A (Q12879 23-1464, other chains not shown): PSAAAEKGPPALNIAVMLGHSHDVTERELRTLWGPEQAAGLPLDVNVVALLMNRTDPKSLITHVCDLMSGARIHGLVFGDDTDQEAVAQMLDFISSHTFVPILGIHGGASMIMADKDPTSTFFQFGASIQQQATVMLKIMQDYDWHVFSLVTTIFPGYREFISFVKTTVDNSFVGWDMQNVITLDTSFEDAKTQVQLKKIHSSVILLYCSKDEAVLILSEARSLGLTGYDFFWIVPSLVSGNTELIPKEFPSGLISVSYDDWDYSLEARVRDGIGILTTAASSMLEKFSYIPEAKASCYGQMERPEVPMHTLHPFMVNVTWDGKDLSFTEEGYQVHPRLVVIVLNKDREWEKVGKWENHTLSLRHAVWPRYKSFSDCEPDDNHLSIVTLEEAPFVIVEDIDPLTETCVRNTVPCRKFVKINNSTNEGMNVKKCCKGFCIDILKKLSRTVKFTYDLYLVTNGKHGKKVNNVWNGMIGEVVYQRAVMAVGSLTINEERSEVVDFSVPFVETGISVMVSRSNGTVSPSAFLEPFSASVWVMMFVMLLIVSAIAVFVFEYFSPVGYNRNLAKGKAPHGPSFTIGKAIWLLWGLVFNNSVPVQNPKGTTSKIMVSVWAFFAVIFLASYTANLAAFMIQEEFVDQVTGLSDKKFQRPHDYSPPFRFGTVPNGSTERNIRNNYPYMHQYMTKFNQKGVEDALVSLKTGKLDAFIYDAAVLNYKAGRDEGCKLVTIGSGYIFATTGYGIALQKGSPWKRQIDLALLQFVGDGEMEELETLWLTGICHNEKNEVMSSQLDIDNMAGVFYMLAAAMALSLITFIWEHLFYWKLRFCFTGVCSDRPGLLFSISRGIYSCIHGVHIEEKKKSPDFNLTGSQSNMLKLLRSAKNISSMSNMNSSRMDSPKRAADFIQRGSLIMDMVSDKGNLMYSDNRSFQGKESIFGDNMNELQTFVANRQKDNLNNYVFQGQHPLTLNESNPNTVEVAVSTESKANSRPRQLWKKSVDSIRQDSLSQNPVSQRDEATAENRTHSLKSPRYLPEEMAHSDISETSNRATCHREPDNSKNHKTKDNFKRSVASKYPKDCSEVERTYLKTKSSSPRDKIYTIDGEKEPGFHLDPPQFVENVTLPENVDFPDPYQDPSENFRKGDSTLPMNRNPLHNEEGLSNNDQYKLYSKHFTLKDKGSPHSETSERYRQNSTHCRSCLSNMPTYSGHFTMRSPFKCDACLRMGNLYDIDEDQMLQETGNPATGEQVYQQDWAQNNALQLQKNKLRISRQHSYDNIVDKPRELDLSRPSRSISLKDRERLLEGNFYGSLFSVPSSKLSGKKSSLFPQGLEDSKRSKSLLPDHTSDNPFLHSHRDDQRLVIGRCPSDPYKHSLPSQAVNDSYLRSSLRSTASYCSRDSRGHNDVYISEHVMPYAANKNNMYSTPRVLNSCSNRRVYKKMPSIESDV
Procedure: Activation of the NR2A or NR2B subtype of NMDA receptor with glutamate as an agonist and glycine co-agonist on these cells results in calcium influx, which can be monitored with fluorescent indicator Fluo-4.
For experiments, the cells were seeded onto poly-D-lysine-coated 96-well black plates with clear bottom (Corning) at a density of ^˜50,000 cells/well. After overnight culture, the growth medium was removed from the wells and the cells were incubated at 37° C. for 60 min in Hanks buffer containing 4 μM fluo-4-AM (Invitrogen) and 0.1% bovine serum albumin (BSA). After dye-loading, the cells were washed three times with Hanks buffer and incubated for 10 min at room temperature with various concentrations of test compounds prepared in Hanks buffer with 0.1% BSA. The cell plates were placed onto FDSS μCell fluorescence reader (Hamamatsu). After 20 sec reading of background fluorescence, agonist glutamate at final 100 μM and co-agonist glycine at final 50 μM were added to the cells to activate the receptor, and the resulting fluorescence changes were recorded and quantified. Based on the changes in fluorescence intensity, the pharmacological effect of test compounds were analyzed and the IC50 values derived from a non-linear least squares fitting of the concentration-dependent response to a standard logistic equation using Prism (Graphpad, Inc): Amplitude=Max Amplitude/(1+(IC50/[antagonist])^n).
For data set [4], the system named is electroconvulsive threshold (tonic convulsions). Put plainly: Electroconvulsive Threshold Test (ECT). The data set is classed as in vivo, rats. To be noted: rats. As for the experimental part:
Rats were administered ECS (rectangular current: 0.6 ms pulse width, 1.5 s duration, 200 Hz) via earclip electrodes connected to a constant current shock generator (Ugo Basile: type 7801). Test compounds were administered by oral gavage (p.o.) 1 hour before the test at a dose volume of 5 mL/kg.
Treatment groups of 20 rats were exposed to ECS as follows: The first animal was exposed to 30 mA of ECS. […] (increases of 5 mA) until the first tonic convulsion was observed. Once the first tonic convulsion was observed, the intensity of ECS was decreased by 2 mA for the next animal and then decreased or increased by 2 mA from animal to animal depending on whether the previous animal convulsed or not. If the first animal did convulse (tonic convulsions) within 5 seconds, animal n°2 is exposed to 25 mA, etc . . . (decreases of 5 mA) until the absence of tonic convulsions was observed. At this point, the intensity of ECS was increased by 2 mA for the next animal and then decreased or increased by 2 mA from animal to animal depending on whether the previous animal convulsed or not. The minimum current intensity applied is 5 mA and the maximum 95 mA. The first 5 animals serve to approach threshold current and were not included in the analysis. The results are presented as the mean current intensity administered to the final 15 animals of a group. The test was performed blind. A positive percent change indicates an anticonvulsant effect. A negative percent change indicates a proconvulsant effect. The test substance was evaluated at 4 doses, typically using 0.5% dimethylsulfoxide, 4% hydroxypropyl-b-cyclodextrin water as a vehicle, and administered p.o. 60 minutes before ECS, and compared with a vehicle control group. Diazepam (16 mg/kg p.o.), administered under the same experimental conditions, was used as reference substance. The experiment included 6 groups. Data with the test substance was analyzed by comparing treated groups with vehicle control using one-way ANOVA followed by Dunnett's t tests.

The test system of data set [5] is pentylenetetrazole-induced convulsions. Put plainly: Pentylenetetrazole (PTZ) Seizure Test. Particulars: 10 mg/kg p.o., mesylate salt, PTZ 100 mg/kg s.c. The format is in vivo, rats. As for the experimental part: Rats, placed in individual macrolon cages (25×19×13 cm), were injected with pentylenetetrazole (PTZ) (100 mg/kg s.c.). The occurrence and latency of clonic and tonic convulsions and death were noted over a 30 minute period. 15 rats were studied per group. The test was performed blind.
Test compound E1-8.2 was administered as the free base.
Compounds were evaluated typically using 0.5% dimethylsulfoxide, 4% hydroxypropyl-b-cyclodextrin water as a vehicle at 1 or more doses (e.g., 1, 3 and 10 mg/kg), administered p.o. 30 minutes before PTZ, and compared with a vehicle control group. Diazepam (16 mg/kg p.o.), administered 60 minutes before PTZ, was used as reference substance. The experiment was performed over 2 separate sub-experiments with N=7 to 8 animals per group and per sub-experiment. Quantitative data (latencies) with the test substance was analyzed by comparing treated groups with vehicle control using Kruskal-Wallis test followed by Mann-Whitney U test. Quantitative data with the reference substance was analyzed using Mann-Whitney U test. Quantal data (frequencies) was analyzed by comparing treated groups with vehicle control using Fisher's Exact Probability tests (*=p<0.05; **=p<0.01; ***=p<0.001).

With `O=C(OCc1ccc(Cl)cc1)N1CC[C@H](CNc2nccn3cnnc23)C(F)(F)C1` [Compound E1-1.3, R-4-chlorobenzyl 4-(([1,2,4]triazolo[4,3-a]pyrazin-8-ylamino)methyl)-3,3-difluoropiperidine-1-carboxylate], in data set [1], the “partial effect on [3H] MK-801 binding” value was found to be 41%. The “CYP2D6 @ 10 μM (%)” value in data set [2] amounted to 37%.
For `O=C(OCc1ccc(F)cc1)N1CC[C@H](CNc2nccn3cnnc23)C(F)(F)C1` [Compound E1-1.4, R-4-fluorobenzyl 4-(([1,2,4]triazolo[4,3-a]pyrazin-8-ylamino)methyl)-3,3-difluoropiperidine-1-carboxylate], the “partial effect on [3H] MK-801 binding” value in data set [1] turned out to be 32%. The “CYP2D6 @ 10 μM (%)” value in data set [2] was found to be 19%.
On to `CCc1ccc(COC(=O)N2CC[C@H](CNc3nccn4cnnc34)C(F)(F)C2)cc1` [Compound E1-1.5, R-4-ethylbenzyl 4-(([1,2,4]triazolo[4,3-a]pyrazin-8-ylamino)methyl)-3,3-difluoropiperidine-1-carboxylate], for which, in data set [1], the “partial effect on [3H] MK-801 binding” value amounted to 48%.
As to `Cc1ccc(COC(=O)N2CC[C@H](CNc3cncc4nncn34)C(F)(F)C2)cc1` [Compound E1-2.2, R-4-methylbenzyl 4-(([1,2,4]triazolo[4,3-a]pyrazin-5-ylamino)methyl)-3,3-difluoropiperidine-1-carboxylate], the “CYP2D6 @ 10 μM (%)” value in data set [2] stood at 18%.
As for `Cc1ccc(COC(=O)N2CC[C@H](CNc3ncc4cn[nH]c4n3)C(F)(F)C2)cc1` [Compound E1-8.2, (+)-R-4-methylbenzyl-4-((1H-pyrazolo[3,4-d]pyrimidin-6-ylamino)methyl)-3,3-difluoropiperidine-1-carboxylate], in data set [3], the IC50 was above 10 µM. For the same compound, the “partial effect on [3H] MK-801 binding” value in data set [1] came to 33%. Besides, the “CYP2D6 @ 10 μM (%)” value in data set [2] was determined as 83%. For the same compound, the “activity on electroconvulsive threshold” value in data set [4] (0.5 and 2 mpk p.o., free base) is on record as “modest proconvulsant activity”; in data set [4] (10 and 20 mpk p.o., free base), “anticonvulsant activity”.
`Cc1ccc(COC(=O)N2CC[C@H](CNc3nc4ccccn4n3)C(F)(F)C2)cc1` [Compound E1-9.2, (+)-R-4-methylbenzyl 4-(([1,2,4]triazolo[1,5-α]pyridin-2-ylamino)methyl)-3,3-difluoropiperidine-1-carboxylate]: the IC50 in data set [3] was above 10 µM. For the same compound, in data set [1], the “partial effect on [3H] MK-801 binding” value amounted to 34%. Further, the “CYP2D6 @ 10 μM (%)” value in data set [2] is 14%.
In the case of `Cc1ccc(COC(=O)N2CC[C@H](CNc3cnccn3)C(F)(F)C2)cc1` [Compound E1-21.2, R-4-methylbenzyl 3,3-difluoro-4-((pyrazin-2-ylamino)methyl)piperidine-1-carboxylate], the “partial effect on [3H] MK-801 binding” value in data set [1] was 49%. In addition, the “CYP2D6 @ 10 μM (%)” value in data set [2] was 97%.
For `Cc1ccc(COC(=O)N2CC[C@H](CNc3cnc(C)cn3)C(F)(F)C2)cc1` [Compound E1-21.26, R-4-methylbenzyl 3,3-difluoro-4-((5-methylpyrazin-2-ylamino)-methyl)piperidine-1-carboxylate], the “partial effect on [3H] MK-801 binding” value in data set [1] turned out to be 41%. Besides, the “CYP2D6 @ 10 μM (%)” value in data set [2] is reported as 32%. For the same compound, the “activity on electroconvulsive threshold” value in data set [4] (3 and 10 mpk p.o., mesylate salt) is “anticonvulsant activity”. Moreover, in data set [5], the “latency to death, change vs vehicle controls” value is recorded as “+31%” and the “number of deaths, change vs vehicle controls” value is recorded as −82%.
As for `Cc1ccc(COC(=O)N2CC[C@@H](CNc3nccn4cnnc34)C(F)(F)C2)cc1` [Compound E2-1.2, (−)-S-4-methylbenzyl 4-(([1,2,4]triazolo[4,3-a]pyrazin-8-ylamino)methyl)-3,3-difluoropiperidine-1-carboxylate], in data set [1], the “partial effect on [3H] MK-801 binding” value was found to be 36%.
As for `FC(F)(F)c1ccc(C(F)(F)CN2CCC(Nc3ncnc4[nH]ncc34)CC2)cc1` [LX-1, reference compound], in data set [2], the “CYP2D6 @ 10 μM (%)” value is 93%.
With `Cn1c(=O)c2[nH]cnc2n(C)c1=O` [theophylline, reference compound], the “activity on electroconvulsive threshold” value in data set [4] (128 mpk p.o.) is “expected proconvulsant activity”.
